The target of test [1] is T1, human mGluR5a receptor (Homo sapiens, UniProt P41594). Description: Two-electrode voltage clamp of Xenopus oocytes injected with mGluR5a3 transcripts. Format: cell-based. The following applies: for transmembrane currents after application of the compound: oocytes injected with mGluR5a3 transcripts, 0.001-0.1 μM quisqualate, 0.1-10 μM glutamate, 0.1-300 μM 1S,3R-ACPD, clamped at −80 to −100 mV; for dose-response of current magnitude: varying amounts of each compound, mGluR5a3 transcripts. As to the method:
Xenopus oocytes were injected with in vitro transcripts prepared from constructs containing DNA encoding human metabotropic receptors. Electrophysiological measurements of the oocyte transmembrane currents were made using the two-electrode voltage clamp technique (see e.g., Stuhmer (1992) Meth. Enzymol. 207:319-339).
Recombinant capped transcripts of metabotropic receptor cDNAs contained in construct mGluR5a3 were synthesized from linearized plasmids using the Megascript Kit (Cat. #1334, Ambion, Inc., Austin, Tex.). The mass of each synthesized transcript was determined by UV absorbance and the integrity of each transcript was determined by electrophoresis through an agarose gel.
Xenopus oocytes were injected with 10-50 ng of metabotropic receptor transcripts per oocyte. The preparation and injection of oocytes were carried out as described by Dascal [(1987) Crit; Rev. Biochem. 22:317-387]. Two-to-six days following mRNA injection, the oocytes were examined using the two-electrode voltage clamp technique. The cells were bathed in Ringer's solution (115 mM NaCl, 2.5 mM KCl, 1.8 mM CaCl2, 10 mM HEPES, pH 7.3), and the membrane potential was clamped at −80 to −100 mV. Drugs were applied by pipetting 60 μl aliquots of drug-containing solution directly into the bath. Data were sampled at 2-5 Hz with a Labmaster data acquisition board in PC-386 using AXOTAPE version 1.2 (Axon Instruments, Foster City, Calif.) software. Data were exported to a laser printer or plotted using Sigmaplot version 5.0.
Metabotropic receptor-modulating compounds, i.e., 0.001-0.1 μM quisqualate, 0.1-10 μM glutamate and 0.1-300 μM 1S,3R-ACPD (1-amino-cyclopentyl-1,3-dicarboxylic acid), were applied to the bath and the transmembrane currents were recorded.
(In general: In two-electrode clamp one electrode senses voltage and the other passes current.)

Test [2] deals with T1, human mGluR5a receptor. Description: Fluorescence imaging assay (fura-2) in HEK 293 cells transiently transfected with mGluR5a3. Format: cell-based. The following applies: 100 μM; HEK 293 transiently transfected with mGluR5a3. Details: expressed in transfected cells; host or cells: HEK 293 cells, transient CaPO4 transfection. As to the method: (§1) HEK 293 cells that had been transiently transfected with mGluR5a3 and untransfected HEK 293 cells (control) were analyzed by digital video imaging in order to visualize metabotropic receptor-mediated changes in intracellular Ca^++ concentration. Transfectants (4×10^5 cells per 35-mm culture dish with glass-insert bottom) were loaded with fura-2 by exposing the cells to 1 μM fura-2 (acetoxymethyl ester) for 25 min at room temperature in the dark. The cells were then washed three times with DMEM and four times with Ringer's (160 mM NaCl, 5 mM KCl, 2 mM CaCl2, 1 mM MgCl2, 11 mM glucose, 5 mM HEPES, pH 7.3) solution.
(§2) The transfectants and untransfected cells were then placed on the stage of an Axiovert 100 TV inverted microscope (Zeiss, Oberkochren, Germany) equipped with a 150 W xenon lamp as the UV light source. […]
(§3) The uncalibrated fura-2 ratios were used to generate pseudocolor images with purple corresponding to resting intracellular Ca^++ concentration (˜100 nM) and red to high intracellular Ca^++ concentration (˜1 μM). For quantitative analysis, the average ratio value in a 12-by-12 pixel region over each cell was calculated by the software for each ratio image in an experiment and imported into a spreadsheet for further analysis and graphing.

For test [3], the system named is untransfected HEK 293 cells. Description: Fluorescence imaging assay (fura-2), untransfected control cells. Format: cell-based, human. The following applies: 100 μM, on average. The method, then: as §1, §2, §3

T1 sequence (P41594 21-1180 isoform P41594-2 limits assumed): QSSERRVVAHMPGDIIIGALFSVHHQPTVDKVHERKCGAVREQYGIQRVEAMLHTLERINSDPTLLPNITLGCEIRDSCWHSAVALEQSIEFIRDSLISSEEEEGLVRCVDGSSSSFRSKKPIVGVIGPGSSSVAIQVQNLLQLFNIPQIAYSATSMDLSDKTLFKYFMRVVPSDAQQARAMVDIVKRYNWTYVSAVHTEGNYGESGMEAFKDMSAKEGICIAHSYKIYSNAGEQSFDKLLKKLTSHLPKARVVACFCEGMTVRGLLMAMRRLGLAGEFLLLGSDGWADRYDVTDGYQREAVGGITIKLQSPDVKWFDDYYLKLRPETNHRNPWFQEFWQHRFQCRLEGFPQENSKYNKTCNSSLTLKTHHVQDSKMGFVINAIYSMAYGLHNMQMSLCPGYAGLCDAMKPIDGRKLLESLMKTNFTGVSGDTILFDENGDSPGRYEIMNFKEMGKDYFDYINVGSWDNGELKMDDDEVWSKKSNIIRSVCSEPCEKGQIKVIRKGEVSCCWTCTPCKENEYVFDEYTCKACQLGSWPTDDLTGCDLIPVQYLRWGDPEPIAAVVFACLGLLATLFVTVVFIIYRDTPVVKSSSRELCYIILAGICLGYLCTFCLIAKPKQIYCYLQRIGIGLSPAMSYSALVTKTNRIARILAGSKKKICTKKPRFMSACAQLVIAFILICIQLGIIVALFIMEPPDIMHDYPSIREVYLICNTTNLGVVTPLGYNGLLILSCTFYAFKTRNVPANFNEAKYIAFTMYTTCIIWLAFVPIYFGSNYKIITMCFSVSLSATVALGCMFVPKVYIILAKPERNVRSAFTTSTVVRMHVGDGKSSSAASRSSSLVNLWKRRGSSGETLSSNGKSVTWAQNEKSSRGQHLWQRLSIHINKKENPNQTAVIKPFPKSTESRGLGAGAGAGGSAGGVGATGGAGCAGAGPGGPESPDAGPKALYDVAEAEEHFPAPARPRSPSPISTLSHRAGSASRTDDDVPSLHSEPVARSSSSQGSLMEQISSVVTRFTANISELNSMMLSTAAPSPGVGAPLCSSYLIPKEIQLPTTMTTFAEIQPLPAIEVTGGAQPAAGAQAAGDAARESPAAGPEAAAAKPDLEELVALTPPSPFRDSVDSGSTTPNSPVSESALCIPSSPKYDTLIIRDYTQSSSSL

On to `NC1(C(=O)O)CCC(C(=O)O)C1` (stereo not drawn) [1S,3R-ACPD, 1-amino-cyclopentyl-1,3-dicarboxylic acid], for which, at human mGluR5a receptor [1], the “transmembrane currents after application of the compound” value (from here on “transmembrane currents”) is given as “Significant currents were detected” and the “dose-response of current magnitude” value is “current magnitude increased with increasing concentration”.

For `N[C@@H](CCC(=O)O)C(=O)O` [glutamate], on human mGluR5a receptor [1], the “transmembrane currents” value was “Significant currents were detected” and the “dose-response of current magnitude” value was “current magnitude increased with increasing concentration”.

In the case of `N[C@@H](Cn1oc(=O)[nH]c1=O)C(=O)O` [quisqualate], the “transfected cells whose intracellular Ca++ concentration increased” value at human mGluR5a receptor [2] is 26.7±22.3%. In addition, at human mGluR5a receptor [1], the “transmembrane currents” value is “Significant currents were detected” and the “dose-response of current magnitude” value is recorded as “current magnitude increased with increasing concentration”. Also, the “intracellular Ca++ concentration change” value in test [3] is recorded as “did not change”.

For the origin of these results see patent US6413764B1, “Human metabotropic glutamate receptors, nucleic acids encoding same and uses thereof” (Merck & Co., Inc., priority 1993, dated 2002).
